Reference: publication PMC5844530, “Fosmetpantotenate (RE-024), a phosphopantothenate replacement therapy for pantothenate kinase-associated neurodegeneration: Mechanism of action and efficacy in nonclinical models” (PLoS ONE, 2018)

Tests used:
[1] = in vitro; settings: pH 7.4, In Vitro Measured Papp
Procedure: (§4) Permeability studies were performed after 2 days of co-culture with rat astrocytes. […] In each filter used for transport, a paracellular marker was included as an internal control to monitor the integrity of the cell monolayer. The day of the experiment, culture medium was removed and cells on Transwell inserts were pre-incubated for 30 min with Hank's Balanced Salt Solution (HBSS) containing 20 mM Hepes pH 7.4 and 0.1% bovine serum albumin (BSA). […] Aliquots from the basal compartment were taken after 1 h; fluorescence was measured using a fluorescence detector. The permeability coefficient of the total system was calculated as follows: P[cm/s]=Vd×ΔMr/A×Md×Δt Where:
(§5) To correct for the contribution of the porous polycarbonate membrane of the filter in the absence of cells, the permeability was also determined for the cell-free system. Contribution of the endothelial cell monolayer to the permeability of the cell and filter system was determined by the following equation: 1/Pe=1/Pt-1/Pf Where the total permeability of the system is denoted as Pt, the cell-free filter as Pf, and the endothelial cell layer alone as Pe. The total resistance of the system towards passage of a substance is composed of 2 resistances in series: that of the cell monolayer and that of the filter; permeability is estimated as 1/resistance [27]. […] Mass balance was determined based on the amount of compound recovered in the donor and receiver chamber at the end of the assay relative to the amount added to the donor chamber at time 0.

[2] = Metabolic stability in monkey whole blood; type: in vitro ADME, cynomolgus monkey; settings: monkey, blood
Procedure: Metabolic stability in blood and liver microsomes: Fosmetpantotenate or its individual diastereomers (5 μM, n = 2, 37°C) were incubated in mouse, rat, cynomolgus monkey, and human whole blood. […] Incubations of fosmetpantotenate or its individual diastereomers (1 μM, n = 2, 37°C) in pooled liver microsomes (0.25 mg protein/mL in 0.1 M phosphate buffer pH 7.4) were initiated with the addition of nicotinamide adenine dinucleotide phosphate (NADPH; 1 mM). Aliquots (100 μL) were obtained at 0, 5, 10, 20, and 40 min and added to 150 μL of 0.1% formic acid in acetonitrile-containing carbamazepine (0.5 μM) as an analytical internal standard, centrifuged, and the supernatants analyzed by LC-MS/MS.
(§1) Bioanalysis for determinations of analyte stability: Samples were analyzed using a benchtop tandem quadrupole detector (TQD) mass spectrometer (Waters Ltd, Centennial Park, Hertfordshire). […] Suitable retention and peak shape with separation of the 2 diastereomers were obtained. The chromatography column was a Phenomenex-Kinetex XB C18 (2.10 x 50 mm; 2.6 μm), with a 0.7 mL/min flow rate and a 2 μL injection volume. […] The gradient was initiated with 20% B and increased linearly, reaching 40% B at 0.6 min, followed by 50% B at 0.8 min and by 95% B at 0.9 min. Conditions were kept isocratic through 1.2 min, returned to starting conditions (20% B) at 1.25 min, and maintained at 20% B through 1.5 min before the next injection. Since fosmetpantotenate is a mixture of diastereomers which are resolved chromatographically, the fosmetpantotenate MRM area corresponds to the sum of the MRM areas of the individual diastereomers.
(§2) The percent of compound remaining was determined from the MRM area response in each sample relative to that in the T = 0 samples (normalized for internal standard). Natural log plots of the percent compound remaining over time were used to determine the t½ of compound disappearance using the relationship t½ = -0.693/λ, where λ is the slope of the natural logarithm of the percent compound remaining vs time curve.

[3] = tested on: porcine brain endothelial cell (PBEC) co-culture model
Procedure: as §4, §5

[4] = Metabolic stability in rat whole blood; type: in vitro ADME; settings: rat, blood
Procedure: (§3) Metabolic stability in blood and liver microsomes: Fosmetpantotenate or its individual diastereomers (5 μM, n = 2, 37°C) were incubated in mouse, rat, cynomolgus monkey, and human whole blood. Samples (50 μL) were taken at 0, 5, 15, 30, and 60 min. Incubations of fosmetpantotenate or its individual diastereomers (1 μM, n = 2, 37°C) in pooled liver microsomes (0.25 mg protein/mL in 0.1 M phosphate buffer pH 7.4) were initiated with the addition of nicotinamide adenine dinucleotide phosphate (NADPH; 1 mM). Aliquots (100 μL) were obtained at 0, 5, 10, 20, and 40 min and added to 150 μL of 0.1% formic acid in acetonitrile-containing carbamazepine (0.5 μM) as an analytical internal standard, centrifuged, and the supernatants analyzed by LC-MS/MS.
as §1, §2

[5] = Stability in simulated gastric fluid; type: in vitro ADME; settings: simulated gi fluid, pH 1.2
Procedure: Stability in simulated gastric fluid: A stock solution of fosmetpantotenate or its individual diastereomers was prepared in 0.1% formic acid in methanol. Simulated gastric fluid, pH 1.2, was prepared with 2 g/L sodium chloride, 3.2 g/L of pepsin, and 0.7% (v/v) HCl. Gastric buffer, pH 1.2, was prepared containing 2 g/L sodium chloride and 0.7% (v/v) HCl. An appropriate aliquot of fosmetpantotenate or individual diastereomers to yield an initial concentration of 10 μM was added to both fluids, and samples were mixed at ~25°C on an orbital shaker. Aliquots (50 μL) were taken at 0, 2, and 4 h; added to 150 μL dimethyl sulfoxide (DMSO) containing an analytical internal standard; vortexed; and analyzed immediately by LC-MS/MS.
as §1, §2

[6] = Metabolic stability in human whole blood; type: in vitro ADME; settings: human, blood
Procedure: as §3, §1, §2

[7] = Microdialysis (brain striatal dialysate) in C57Bl6 mice; settings: striatal dialysate; oral dose at 700 mg/kg; all samples; 700 mg/kg
Procedure: Mice were anesthetized using isoflurane (2%, 800 mL/min O2).
For oral dosing experiments, MetaQuant microdialysis probes (regenerated cellulose membrane, BrainLink, the Netherlands) were inserted into the striatum (3 mm exposed surface). Coordinates for the tips of the probes for mice were anterior-posterior (AP) = +0.8 mm from bregma, lateral (L) = -1.7 mm from midline, and ventral (V) = -4.0 mm from dura, the toothbar set at 0 mm.
Microdialysis animal dosing and sample collection: Adult non-fasted male C57Bl6 mice (20–29 g; Harlan Laboratories, Livermore, CA), and Macaca fascicularis (4–9 kg, 3–6 yr old) were used for the experiments. For oral dosing, fosmetpantotenate was formulated as a solution in 20% hydroxypropyl-beta-cyclodextrin in 50 mM citrate buffer in water pH 5.0 and administered using a dose volume of 10 mL/kg. Mice (N = 6 serially sampled) received fosmetpantotenate as a single oral dose at 700 mg/kg and monkeys received a single oral dose at either 100 mg/kg (N = 4 serially sampled) or 300 mg/kg (N = 2 serially sampled).
Microdialysis: On the morning of the microdialysis experiment, a MetaQuant probe was inserted into the guide shaft targeting the head of the caudate nucleus and perfused at a rate of 0.15 μL/min aCSF containing 0.2% (w/v) BSA, with a carrier flow of 0.8 μL/min of ultrapure water.
A single 30 min pre-dose basal dialysate sample was collected from mice over -0.5 to 0 h, and three 30 min basal samples from monkeys over -1.5 to 0 h. Fosmetpantotenate was administered at t = 0, and 30 min dialysate samples were collected for an additional 4 h for mice and 3 h for monkeys.
Sample preparation for mouse dialysate samples: Concentrations of fosmetpantotenate, PA, and PPA in mouse dialysate were determined by Nextcea, Inc, Woburn, MA, using LC-MS/MS. Standard curves and QC samples containing fosmetpantotenate (D1 and D2) and the surrogate analytes for PA and PPA (^15N/^13C3-PA and ^15N/^13C3-PPA) were prepared fresh in 0.1% formic acid in water. Frozen study mouse dialysate samples were thawed in ice/water bath. Standards, QC samples, and thawed study dialysate samples (20 μL) were mixed with 20 μL 0.1% formic acid in water containing internal standard (50 ng/mL of ^15N/^13C3-fosmetpantotenate) and analyzed by LC-MS/MS.
LC-MS/MS analysis for mouse dialysate samples: Concentrations of fosmetpantotenate, PA, and PPA in dialysate from mice were determined by using LC-MS/MS conditions described for blood PK analysis by Nextcea, except dialysate samples were analyzed using an ACIEX API 5000 and flow rate was increased to 0.6 mL/min.
Quantitation of in vivo samples: Peak areas were integrated using Analyst software (AB Sciex, Concord, Ontario, Canada). Calibration curves for all blood samples from mouse and rat PK studies and mouse dialysate samples were prepared by plotting the analyte to internal standard (^15N/^13C3-fosmetpantotenate) peak area ratio vs concentration.

[8] = Metabolic stability in mouse whole blood; type: in vitro ADME; settings: mouse, blood
Procedure: as §3, §1, §2

Structure (SMILES) | Papp at 1 h [1] [×10⁻⁶ cm/s] | Mean half-life [2] [min] | Percentage Remaining ([2]; 0 h) [%] | Percentage Remaining ([2]; 5 min) [%] | In Vitro Measured Papp [3] | Mean half-life [4] [min] | Percentage Remaining ([4]; 0 h) [%] | Percentage Remaining ([4]; 0.5 h) [%] | half-life (t½) in simulated gastric fluid [5] [min] | Mean half-life [6] [min] | Percentage Remaining ([6]; 0 h) [%] | Dialysate Conc [7] [nM] | Mean half-life [8] [min] | Percentage Remaining ([8]; 0 h) [%] | Percentage Remaining ([8]; 5 min) [%] | Percentage Remaining ([8]; 0.25 h) [%] | blood-brain barrier permeability classification [3]
Cn1c(=O)c2c(ncn2C)n(C)c1=O [Caffeine] | 34.3 ± 3.1 | – | – | – | – | – | – | – | – | – | – | – | – | – | – | – | –
COC(=O)CCNC(=O)[C@H](O)C(C)(C)COP(=O)(N[C@@H](C)C(=O)OC)Oc1ccccc1 (single isomer, unassigned) [Compound D1] | – | 35 | 100 | 88 | 4.8 ± 1.8 10^−6 cm/s | <5 | 100 | 0 | > 600 | 44 | 100 | < 4.72 | <5 | 100 | 0 | 0 | –
N[C@@H](Cc1ccc(O)c(O)c1)C(=O)O [L-DOPA, S-3,4-dihydroxyphenylalanine, reference compound] | 5.8 ± 1.9 | – | – | – | – | – | – | – | – | – | – | – | – | – | – | – | moderate permeability range
